Where “and” joins values, the source holds several entries; their conditions need not be identical. Equal entries are not always repeated.
Test: pH of 20 mg/mL solutions (Example 9)
Type: physicochemical
Experimental: The pH of two freshly prepared solutions of the compound each at 20 mg/mL concentration was measured with a calibrated Mettler MP-220 pH meter equipped with a pH electrode (model 413). The pH of the solution made in water averaged 7.4 as compared to solutions made in isotonic saline in which the pH averaged 6.21 using triplicate samples in each case, as shown in the table below.

Which results are given for `CCc1ccc(=O)n(-c2ccccc2)c1` [5-EPP, 5-ethyl-1-phenyl-2-(1H)-pyridone]?
pH of the solution, average (20 mg/mL in isotonic saline): 6.21; pH of the solution, average (20 mg/mL in water): 7.4; pH (DI Water, final 5-EPP 20.0 mg/mL): 7.29 and 7.24; pH (Isotonic saline, final 5-EPP 20.0 mg/mL): 6.13; pH (Isotonic saline, final 5-EPP 20.1 mg/mL): 6.20
